In one experiment the test system is Dermal fibroblasts. Kind of experiment: Growth factor production by dermal fibroblasts cultured 48 hours with CBD. In kind it is cell-based. The settings on record: various CBD concentrations, OPTI-MEM with 10% fetal calf serum. From the text:
In the groupings of three bars, the middle bar at each concentration represents 100,000 fibroblasts co-cultured with CBD at the indicated concentration. The right bar at each concentration represents 200,000 fibroblasts co-cultured with CBD at the indicated concentration. The left bar at each concentration represents 0 fibroblasts co-cultured with CBD at the indicated concentration;
In the groupings of three bars, the middle bar at each concentration represents 100,000 fibroblasts co-cultured with CBD at the indicated concentration. The right bar at each concentration represents 200,000 fibroblasts co-cultured with CBD at the indicated concentration. The left bar at each concentration represents 0 fibroblasts co-cultured with CBD at the indicated concentration.
Dermal fibroblasts were obtained from Allcells, Inc. and cultured for 48 hours in the indicated concentrations of CBD. […] Cultures were performed in OPTI-MEM media with 10% fetal calf serum.

In experiment [1] the test system is in vitro formed nucleus pulposus tissues. The settings on record: TNF-alpha 1-5 ng/mL, within 48 hours; cited from earlier work.
Experiment [2] concerns CGRP expression in dorsal root ganglion (DRG) neurons innervating intervertebral discs. The settings on record: cited from earlier work.

With `C=C(C)C1CCC(C)=CC1c1c(O)cc(CCCCC)cc1O` (centres unmarked) [CBD, 2-[3-methyl-6-(1-methylethenyl)-2-cyclohexen-1-yl]-5-pentyl-1,3-benzenediol], in the experiment with Dermal fibroblasts (FIG. 1), the “IGF-1 production from fibroblasts” value is reported as “augmentation of IGF-1 was observed”. Besides, in the experiment on Dermal fibroblasts (FIG. 2), the “EGF-1 production from fibroblasts” value was “augmentation of EGF-1 was observed”. On to TNF-alpha, for which the “proteoglycan content of NP tissue relative to original” value in experiment [1] was 25%.

As for etanercept, the “CGRP expression in DRG neurons innervating injured discs” value in experiment [2] (direct intradiscal application immediately after disc puncture, rats) was “suppressed CGRP expression”. The “proportion of CGRP-immunoreactive neurons among FluoroGold-labeled neurons” value in experiment [2] (rat L4/5 disc puncture, direct intradiscal application, sham 21%±4%, puncture+saline 32%±7%) is 23%±4%.

The values above are taken from US20220395572A1, “C[…] THERAPY FOR TREATMENT OF DISC DEGENERATIVE DISEASE” (FIGENE, LLC, priority 2019, published 2022).
